Measured values taken from PubChem BioAssay (NCI).
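Tested at 5 concentrations; 48 h exposure; 96-well plates; endpoints linearly interpolated, else capped at highest concentration. At the GI50, growth is halved. TGI: total growth inhibition.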

Tests used:
Test in all cases: inhibition of tumour cell growth, NCI panel, 48 h
HL-60(TB) leukemia = tested on: HL-60(TB) leukemia
HOP-62 NSCLC = tested on: HOP-62 NSCLC
HT29 colon = tested on: HT29 colon
IGROV1 ovarian = tested on: IGROV1 ovarian
M14 melanoma = tested on: M14 melanoma
SNB-19 CNS = tested on: SNB-19 CNS
SW-620 colon = tested on: SW-620 colon
U251 CNS = tested on: U251 CNS
RXF 393 renal = tested on: RXF 393 renal

| Compound | TGI (HL-60(TB) leukemia) [µM] | TGI (HOP-62 NSCLC) [µM] | TGI (HT29 colon) [µM] | TGI (IGROV1 ovarian) [µM] | TGI (M14 melanoma) [µM] | TGI (SNB-19 CNS) [µM] | TGI (SW-620 colon) [µM] | TGI (U251 CNS) [µM] | TGI (RXF 393 renal) [µM] | GI50 (HL-60(TB) leukemia) [µM] | GI50 (HOP-62 NSCLC) [µM] | GI50 (HT29 colon) [µM] | GI50 (IGROV1 ovarian) [µM] | GI50 (M14 melanoma) [µM] | GI50 (SNB-19 CNS) [µM] | GI50 (SW-620 colon) [µM] | GI50 (U251 CNS) [µM] | GI50 (RXF 393 renal) [µM] |
| --- | --- | --- | --- | --- | --- | --- | --- | --- | --- | --- | --- | --- | --- | --- | --- | --- | --- | --- |
| COc1ccc2ccc3c(c2c1)CN1CCc2cc(OC)c(OC)cc2C1C3 (stereo not drawn) | > 100 | > 100 | > 100 | > 100 | > 100 | > 100 | > 100 | > 100 |  |  |  |  |  |  |  |  |  |  |
| CCCCCCCCCCCCCC(=O)OC1CC(=O)OC1CO (stereo not drawn) | 63.9 | > 100 | > 100 | > 100 | 39.7 | > 100 | > 100 | > 100 | > 100 |  |  |  |  |  |  |  |  |  |
| Cc1cc2c(cc1C)[n+](=O)c(C(=O)CC(=O)C(=O)Nc1c(C(C)C)cccc1C(C)C)c(C)n2[O-] |  | > 100 | > 100 | > 100 | > 100 | > 100 | > 100 | > 100 | > 100 |  |  |  |  |  |  |  |  |  |
| Cc1ccc(S(=O)(=O)C(CC(=O)N2CCCC2)C(=O)c2ccccc2)cc1 (stereo not drawn) | 52.7 | > 100 | > 100 | > 100 | > 100 | > 100 | > 100 | > 100 | > 100 |  |  |  |  |  |  |  |  |  |
| Clc1ccc(C2N3CCCCC3[C@@H]3c4[nH]c5ccccc5c4CCN23)cc1 (stereo partly drawn) | 55 | > 100 | 49.9 | > 100 | > 100 | > 100 | > 100 | > 100 | 78.7 |  |  |  |  |  |  |  |  |  |
| CC(C)CC(=O)[O-].CC(C)CC(=O)[O-].N.N.N.N.[Co+3].[O-][Cl+3]([O-])([O-])[O-] | > 100 | > 100 | > 100 | > 100 | > 100 | > 100 | > 100 | > 100 |  | > 100 | > 100 | > 100 | > 100 | > 100 | > 100 | > 100 | > 100 |  |
| COC(=O)C1=C(C(=O)OC)C2C=CC1C1C(Cl)=C(Cl)C21 (stereo not drawn) |  | > 100 | > 100 | > 100 | > 100 |  | > 100 | > 100 | > 100 |  |  |  |  |  |  |  |  |  |
| N#C/C(=C/c1ccsc1)C(=O)c1ccccc1 | > 100 | > 100 | > 100 |  | > 100 | > 100 | > 100 | > 100 | > 100 |  |  |  |  |  |  |  |  |  |
| O=C1C=CC(=Nc2ccc3c(c2)C(Br)c2ccccc2-3)O1 (stereo not drawn) | > 100 | > 100 |  | > 100 | > 100 | > 100 | > 100 | > 100 | > 100 |  |  |  |  |  |  |  |  |  |
| COc1cc(C2c3cc4c(cc3C(NCC(O)CO)C3COC(=O)[C@H]23)OCO4)cc(OC)c1OC (stereo partly drawn) | 0.543 | 0.676 | > 100 | > 100 | > 100 | > 100 | > 100 | 0.766 |  |  |  |  |  |  |  |  |  |  |
| CN(C(=O)C12C3C4C1C1C2C3C41C(=O)C(C)(C)C)C(C)(C)C (stereo not drawn) | > 100 | > 100 | > 100 | > 100 | > 100 | > 100 | > 100 | > 100 |  |  |  |  |  |  |  |  |  |  |
| COC(=O)C(=O)C(C(=O)C=C(C)C)C(=O)C(=O)Nc1cc(C(F)(F)F)ccc1Cl (stereo not drawn) | > 100 | > 100 | > 100 | > 100 | > 100 | > 100 |  | > 100 | > 100 |  |  |  |  |  |  |  |  |  |
| CCOc1ccc2c(c1)[n+]([O-])c(S(=O)(=O)c1ccc(C)cc1)c(N)[n+]2[O-] | > 100 | > 100 | > 100 | > 100 | > 100 | > 100 | > 100 | > 100 |  |  |  |  |  |  |  |  |  |  |
| CCCCCCCCCC[C@@H](O)[C@@H]1CC[C@H]([C@H]2CC[C@@H]([C@@H](O)CCCCCCCCCC[C@H]3CC(CC(C)=O)C(=O)O3)O2)O1 (stereo partly drawn) | 2.29 | 31 | 34.6 | 39.2 | 35.3 | 31.3 | 38 | 43.8 |  |  |  |  |  |  |  |  |  |  |
| O=C(CI)NC1Oc2ccccc2-c2oc(=O)c(-c3ccccc3)cc21 (stereo not drawn) | 4.94 | 3.81 |  |  | 3.2 | 7.54 |  | 3.22 | 3 | 2.09 | 1.87 |  |  | 1.67 | 2.64 |  | 1.73 | 1.5 |
| Cc1ccc(C)c(NC(=O)CC/C(=N\NC(=O)C(=O)NN)C(C)C(=O)c2ccc(O)cc2)c1 (stereo not drawn) |  | > 100 | > 100 | > 100 | > 100 | > 100 | > 100 | > 100 | > 100 |  |  |  |  |  |  |  |  |  |
| O=C(N/N=C/c1ccccc1O)c1cccc([N+](=O)[O-])c1 | > 39.3 |  | > 100 | 79.6 | 43.2 | > 100 | > 100 | > 100 | > 88.9 |  |  |  |  |  |  |  |  |  |
| CC12CC[C@@H](C(C)(C)O)C1[C@@H](O)CC1(C)C2CCC2[C@@]3(C)CC[C@H](O)C(C)(C)C3C(O)C[C@]21C (stereo partly drawn) | 24.9 |  | 31.1 | 39.5 | > 100 | 46.5 | 39 | 40 | 23.5 |  |  |  |  |  |  |  |  |  |
